Data: paper PMC4871610 (Cell, 2015)

Experiments:
CutC (choline TMA lyase) [1] = target: T1, CutC (choline TMA lyase) (Proteus mirabilis, UniProt B4EYG1); assay: anaerobic d9-TMA production with purified CutC and CutD, LC/MS/MS; assay type: biochemical
T1 sequence (B4EYG1 1-1142): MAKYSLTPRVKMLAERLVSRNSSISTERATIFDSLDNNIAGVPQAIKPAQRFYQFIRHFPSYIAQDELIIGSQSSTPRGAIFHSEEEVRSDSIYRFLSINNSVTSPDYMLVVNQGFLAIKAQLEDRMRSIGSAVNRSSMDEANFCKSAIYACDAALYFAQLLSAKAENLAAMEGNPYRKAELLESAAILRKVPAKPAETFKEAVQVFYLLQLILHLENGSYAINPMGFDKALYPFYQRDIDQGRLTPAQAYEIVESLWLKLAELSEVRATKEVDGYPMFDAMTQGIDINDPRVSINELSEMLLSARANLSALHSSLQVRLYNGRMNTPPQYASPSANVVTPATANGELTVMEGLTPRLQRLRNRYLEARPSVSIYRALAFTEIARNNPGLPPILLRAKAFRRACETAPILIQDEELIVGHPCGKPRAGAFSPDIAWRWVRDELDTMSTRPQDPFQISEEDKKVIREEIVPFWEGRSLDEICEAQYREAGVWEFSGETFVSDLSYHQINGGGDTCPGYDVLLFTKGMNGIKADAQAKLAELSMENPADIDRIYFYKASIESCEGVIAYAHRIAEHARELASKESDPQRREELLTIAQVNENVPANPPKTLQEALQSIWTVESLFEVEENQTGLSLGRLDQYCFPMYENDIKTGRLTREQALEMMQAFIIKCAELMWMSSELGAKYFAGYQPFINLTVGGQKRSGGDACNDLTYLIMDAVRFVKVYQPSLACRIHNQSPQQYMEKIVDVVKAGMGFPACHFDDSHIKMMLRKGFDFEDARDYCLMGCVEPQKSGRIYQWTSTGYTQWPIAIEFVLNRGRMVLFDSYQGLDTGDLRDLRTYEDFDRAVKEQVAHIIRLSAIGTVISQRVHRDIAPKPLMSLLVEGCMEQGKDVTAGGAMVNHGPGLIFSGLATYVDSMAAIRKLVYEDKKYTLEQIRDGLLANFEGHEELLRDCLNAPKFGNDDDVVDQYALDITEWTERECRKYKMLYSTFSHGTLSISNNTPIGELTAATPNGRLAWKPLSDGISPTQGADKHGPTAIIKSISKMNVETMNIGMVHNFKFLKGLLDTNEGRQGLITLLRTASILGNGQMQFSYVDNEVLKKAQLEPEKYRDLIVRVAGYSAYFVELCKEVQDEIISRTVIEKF
T1 sequence (B4EYG0 1-316 partner): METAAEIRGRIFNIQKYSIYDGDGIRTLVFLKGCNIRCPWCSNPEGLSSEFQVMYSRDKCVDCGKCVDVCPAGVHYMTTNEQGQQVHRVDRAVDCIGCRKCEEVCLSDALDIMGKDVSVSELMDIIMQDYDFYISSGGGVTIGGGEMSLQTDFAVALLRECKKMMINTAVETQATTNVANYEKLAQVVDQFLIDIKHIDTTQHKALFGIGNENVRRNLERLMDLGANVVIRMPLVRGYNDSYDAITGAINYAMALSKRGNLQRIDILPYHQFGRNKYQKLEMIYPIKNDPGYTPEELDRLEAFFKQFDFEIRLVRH

CutC (choline TMA lyase) [2] = target: T1, CutC (choline TMA lyase); assay: d9-TMA production from d9-choline in cutC/D-transformed E. coli lysate; assay type: cell-based
CutC (choline TMA lyase) [3] = target: T1, CutC (choline TMA lyase); assay: d9-TMA production by purified CutC and CutD, LC/MS/MS; assay type: biochemical
CutC (choline TMA lyase) [4] = target: T1, CutC (choline TMA lyase); assay: d9-TMA production from d9-choline in cutC/D-transformed E. coli lysate, LC/MS/MS; assay type: biochemical
YeaW = target: T2, YeaW (Escherichia coli, UniProt P0ABR7); assay: d9-TMA production by purified YeaW/X, LC/MS/MS; assay type: biochemical
T2 sequence (P0ABR7 1-374): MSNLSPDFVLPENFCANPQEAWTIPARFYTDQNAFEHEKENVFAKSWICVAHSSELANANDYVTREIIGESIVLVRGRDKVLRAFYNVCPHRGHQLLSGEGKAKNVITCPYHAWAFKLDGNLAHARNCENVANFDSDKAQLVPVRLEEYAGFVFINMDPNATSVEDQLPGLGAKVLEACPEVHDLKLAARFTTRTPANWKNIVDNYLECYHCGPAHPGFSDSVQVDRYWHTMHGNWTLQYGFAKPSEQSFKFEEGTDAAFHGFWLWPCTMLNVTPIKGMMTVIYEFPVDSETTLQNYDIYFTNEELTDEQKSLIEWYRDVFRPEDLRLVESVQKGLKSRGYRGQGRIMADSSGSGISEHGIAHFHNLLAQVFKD

## CC(C)(C)CCO [DMB, 3,3-dimethyl-1-butanol]
CutC (choline TMA lyase) [1]
  IC50: ~10 µM

## C[P+](C)(C)CCO [P-choline, (2-Hydroxyethyl)(trimethyl)phosphonium]
CutC (choline TMA lyase) [2]
  d9-TMA production from d9-choline in cutC/D-transformed E. coli lysate (activity): phosphonium analogue of choline (P-choline) showed a unique effect by augmenting cutC/D choline TMA lyase activity

## C[N+](C)(C)CCO [choline]
CutC (choline TMA lyase) [3]
  d9-TMA production by purified CutC and CutD, LC/MS/MS: both purified polypeptides showed dose-dependent inhibition in TMA production from either choline or GPC substrates

## C[Si](C)(C)CCO [TMSi-ETOH, 2-(trimethylsilyl)ethanol]
CutC (choline TMA lyase) [4]
  IC50: ~10 µM

## C[N+](C)(C)CC(O)CC(=O)[O-] (centres unmarked) [carnitine]
YeaW
  d9-TMA production by purified YeaW/X, LC/MS/MS: Purified YeaW/X showed enzymatic cleavage of d9-carnitine
